# According to PMC12114375, “Discovery of Hydrazineyl Amide Derivative of Pseudolaric Acid B for Reprogramming Tumor-Associated Macrophages Against Tumor Growth” (Molecules, 2025):
# Read-outs that look alike come from different tables or passages of the source.
# Assays:
# [1] = In vivo pharmacokinetic study in mice; parameters: species or system ICR mice; conditions: 1 mg/kg i.v., mean ± SD
# Procedure: To investigate the druggability of compound 12, the pharmacokinetic (PK) properties of 12 were examined in mice. The mice were treated with 12 intravenously (i.v.) at a dose of 1 mg/kg, and the resulting PK parameters were recorded.
# ICR mice (n = 3) were administered with the test compound via intravenous injection at 1 mg/kg. Blood samples were collected 0.083, 0.25, 0.5, 1, 2, 4, 8, and 24 h after administration. An aliquot of 10 μL of the plasma sample was deproteinized with 200 μL of a MeOH: ACN = 1: 1 solution containing an internal standard. After centrifugation, the supernatant was injected for LC–MS/MS analysis. A standard set of parameters, including the area under the curve (AUC0–∞), elimination half-life (T1/2), time to reach the maximum plasma concentration (Tmax), maximum plasma concentration (Cmax), plasma clearance (Cl), and mean residence time (MRT), were calculated using WinNonlin software.
# [2] = system: ARG1 mRNA expression in RAW 264.7 cells; assay: qRT-PCR of ARG1 mRNA in IL-4/IL-13-stimulated RAW 264.7 cells; type: cell-based, mouse; conditions: Mus musculus, RAW264.7, IL-4/IL-13 (20 ng/mL) plus compound 10 μM, 12 h, stimulated control = 100%, mean ± SD, read-out: ARG1 mRNA Relative Expression (%)
# Source text: (§1) We first investigated the impacts of a series of commercially available natural pseudolaric acids or their O-pyranosides (Figure 1) on the pro-tumoral phenotype of TAMs, which play a critical role in anti-tumor immune response modulation. […] In contrast, M1-biased macrophages combat tumor growth and bacterial infections by expressing inducible nitric oxide synthase 2 (NOS2), which catalyzes the production of nitric oxide (NO). Recognizing the pivotal roles of ARG1 and NOS2, we utilized these molecules as key biomarkers and effectors for assessing macrophage immune function. In our experiments, the mouse monocyte–macrophage leukemia cell line RAW 264.7 was induced with IL-4/IL-13 to acquire an M2-like pro-tumoral phenotype. Concurrently, the cells were treated with the pseudolaric acid-related natural products 1–7 at a concentration of 10 μM for 12 h. Additionally, PLX3397 was used as a positive control at a concentration of 0.5 μM. […] As shown in Table 1 and Figure S1A, pseudolaric acid B (1), its deacetoxyl analogue 2 (pseudolaric acid C), and β-D-glucoside 7 substantially attenuated the upregulation of ARG1 mRNA expression induced by IL-4/IL-13, with statistically significant effects. In contrast, bis-carboxylic acids analogs 4 (pseudolaric acid C2) and 6 (demethoxydeacetoxypseudolaric acid B) have no significant impact on ARG1 mRNA expression.
# (§2) With these carboxylic acid-modified derivatives in hand, we investigated their impact at 10 μM on ARG1 and NOS2 mRNA expression in RAW 264.7 cells pre-stimulated with IL-4/IL-13 to evaluate the effects on the pro-tumor phenotype of macrophages. […] Further removal of one hydroxyl from the glycerol moiety 15 further enhanced the inhibitory effect on ARG1 expression but had no significant impact on NOS2 expression.
# (§3) Total RNA was isolated from cells using the EZ-press RNA Purification Kit (EZBioscience, Suzhou, China) and subjected to reverse transcription with the 5×HiScript II qRT SuperMix II (Vazyme, Nanjing, China). PCR was performed with the 2×ChamQ Universal SYBR qPCR Master Mix (Vazyme, Nanjing, China). All primers for qRT-PCR are described in Table S1. The 2^−∆∆Ct method was utilized to calculate the fold change in gene expression, with the expression levels in the stimulated group set as the baseline for normalization.
# [3] = system: CD8+ T cell proliferation and activation suppressed by M2-like BMDMs; assay: CD8+ T cell suppression assay (BMDM / spleen cell co-culture); type: cell-based, mouse; conditions: BMDMs pretreated 48 h, co-cultured 48 h with anti-CD3/CD28-stimulated spleen cells
# Procedure: Pro-tumoral M2-like TAMs are well-known to directly suppress CD8^+ T cell proliferation and activation. When they were co-cultured with autologous spleen cells, as expected, the IL-4/IL-13-induced BMDMs suppressed the proliferation and activation of CD8^+ T cells.
# Spleen cells were isolated from C57BL/6 mice, followed by red blood cell (RBC) lysis. BMDMs were induced into M2-like macrophages and treated with different concentrations of compound 1 for 48 h. Then, 2 × 10^5 spleen cells/well were stimulated with αCD3/αCD28 and co-cultured with 2 × 10^4 pro-treated BMDMs in 96-well plates in LCM (RPMI 1640 with […] 2-mercaptoethanol and 10% fetal bovine serum) at 37 °C. After 48 h, the spleen cells were treated with the eBioscience™ Cell Stimulation Cocktail (plus protein transport inhibitors) for 4 h, and cell activation was then determined by the proportion of IFNγ^+ CD8^+ T cells and GRZB^+ CD8^+ T cells in CD8^+ T cells measured using flow cytometry. Cell proliferation was determined by the proportion of Ki67^+ CD8^+ T cells in CD8^+ T cells using flow cytometry.
# Figure 3 Compound 12 reverses macrophage-mediated CD8^+ T cell suppression. […] The ratios of Ki67^+ CD8^+ T cells (A), IFNγ^+ CD8^+ T cells, and granzyme B^+ CD8^+ T cells (B) in total CD8^+ T cells were assessed using flow cytometry. […]
# [4] = system: NOS2 mRNA expression in RAW 264.7 cells; assay: qRT-PCR of NOS2 mRNA in IL-4/IL-13-stimulated RAW 264.7 cells; type: cell-based, mouse; conditions: Mus musculus, RAW264.7, IL-4/IL-13 (20 ng/mL) plus compound 10 μM, 12 h, stimulated control = 100%, mean ± SD, read-out: NOS2 mRNA Relative Expression (%)
# Source text: as §1, §2, §3
smiles,measurement,setting,value
"COC(=O)C1=CC[C@@]23CC[C@@H]([C@@](C)(/C=C/C=C(\C)C(=O)NNCCO)OC2=O)[C@@]3(OC(C)=O)CC1 [compound 12, Methyl(3R,4S,4aS,9aR)-4a-acetoxy-3-((1E,3E)-5-(2-(2-hydroxyethyl)hydrazineyl)-4-methyl-5-oxopenta-1,3-dien-1-yl)-3-methyl-1-oxo-3,4,4a,5,6,9-hexahydro-1H-4,9a-ethanocyclohepta[c]pyran-7-carboxylate]",Tmax,"[1]; n = 3, 1 mg/kg",5 ± 0 min
same,AUC(0-inf),"[1]; ICR, mouse, plasma, iv, n = 3",363 ± 29.4 ng·h/mL
same,Cmax,"[1]; ICR, mouse, plasma, iv, n = 3",32.1 ± 11.7 ng/mL
same,clearance,"[1]; ICR, mouse, plasma, iv, n = 3",46.1 mL/min/kg
same,half-life,"[1]; ICR, mouse, plasma, iv, n = 3",40.2 ± 6.88 h
same,MRT inf,"[1]; ICR, mouse, plasma, iv, n = 3, read-out: MRT0–∞",63.1 ± 7.96 h
same,Tmax,"[1]; ICR, mouse, plasma, iv, 1 mg/kg, n = 3, read-out: Tmax",4.98 min
same,mrna remaining at 10 µM,[2],1.4 ± 1.1%
same,"inhibitory effects of IL-4/IL-13-induced BMDMs on CD8+ T cell proliferation and activation (Ki67+, IFNγ+, GRZB+ CD8+ T cells)",[3],dose-dependently reversed
same,activity at 10 µM,[4],182 ± 5.3%
